# Results reported in US5424205A, “Amyloidin protease and uses thereof” (Athena Neurosciences, Inc., priority 1993, dated 1995).
# Read-outs that look alike come from different tables or passages of the source. Starred links: 1 amine or outer side, 2 acyl side, 3 side chain; linkers in the order of their positions; H or OH if unused. Residues, ends and D or L forms follow the SMILES beside them. *: point of attachment. pNA = O=[N+]([O-])c1ccc(N*)cc1; Suc = O=C(CCC(=O)[*:2])[*:1]; MeOSuc = COC(=O)CCC(=O)*; Cbz = O=C(OCc1ccccc1)*; Boc = CC(C)(C)OC(=O)*
# B1: rat mast cell protease I (RMCP I) (protein)
# chain: IIGGVESRPHSRPYMAHLEITTERGYKATCGGFLVTRQFVMTAAHCKGRETTVTLGVHDVSKTESTQQKIKVEKQIVHPNYNFYSNLHDIMLLKLQKKAKVTPAVDVIPLPQPSDFLKPGKMCRAAGWGQTGVTKPTSNTLREVKQRIMDKEACKNYFHYNYNFQVCVGSPRKIRSAYKGDSGGPLVCAGVAHGIVSYGRGDAKPPAVFTRISPYVPWINKVIKGKDLTSLSLHESESPS
# What was measured:
# amyloidin [1] = target: T1, amyloidin (Homo sapiens, UniProt P52888); assay: Inhibition of amyloidin by various inhibitors (APP592-601 peptide cleavage); type: biochemical
# T1 construct: from tissue; a purification from blood is also described
# amyloidin [2] = target: T1, amyloidin; assay: Cleavage of short peptide para-nitroanilide substrates by amyloidin (A405); type: biochemical; settings: pH 7.5; up to 2 hours
# amyloidin [3] = target: T1, amyloidin; assay: Cleavage of APP592-601 and its analogs by amyloidin (subsite requirements); type: biochemical; settings: pH 7.5, CaCl2, 37° C., 60 min; RP-HPLC
# Protocol: Routinely, 25 ul of enzyme solution were mixed with 10 ul of 1M Tris, pH 7.5, 5 ul 10 mM CaCl2, and 10 ul of a 2 mg/ml Stock solution of APP592-601 in water, or 20 mM Tris, pH 7.5, 0.15M NaCl, in 1.5 ml polypropylene microfuge tubes. The reaction mixtures were incubated for 60 min at 37° C. in a water bath, then quenched with 450 ul ice-cold ethanol, and incubated on ice for a further 20 min. They were centrifuged at 15,000×g for 10 min, and the supernatants transferred to new polypropylene tubes and dried under vacuum. The residue was dissolved in 0.5 ml water, centrifuged at 15,000×g for 5 min, and 200 ul of the supernatant injected onto a 0.46×30 cm Vydac C18 column equilibrated with 0.1% trifluoroacetic acid in water, at 1 ml/min. The column was immediately eluted with a linear gradient to 40% acetronitrile in 0.1% trifluoroacetic acid in water, over 20 minutes. The elution was monitored at 220 nm, and peaks were individually collected, hydrolyzed in 6N HCl at […] for 2 hr, then subjected to quantitative amino-acid analysis in an Applied Biosystems amino-acid analyzer. Once identified, times of elution were used to identify cleavage patterns.
# In order to test the subsite requirements of amyloidin in the APP592-601 cleavage assay, analogs of this peptide substrate were synthesized.
# Following synthesis and purification, the peptides were then incubated with amyloidin under conditions identical to those developed with APP592-601. The underlined residues designated changes from the native peptide sequence while the arrows indicate peptide cleavage sites. [drawing 5]
# brain protease = settings: TLC; 125I-labelled peptide; Abraham et al; cited from earlier work
# amyloidin [4] = target: T1, amyloidin; assay: Cleavage of full-length APP from baculovirus cells by amyloidin; type: biochemical; settings: certain preliminary conditions
# [5] = target: APP592-601 (N-acetyl-Ser-Glu-Val-Lys-Met-Asp-Ala-Glu-Phe-Arg)
# [6] = target: human amyloidin protease (human)
# [7] = target: soybean trypsin inhibitor (Sigma Chemicals) immobilized on CH-Sepharose; assay: affinity column of immobilized soybean trypsin inhibitor; activity measured in the flow-through
# T1 sequence (P52888 whole entry): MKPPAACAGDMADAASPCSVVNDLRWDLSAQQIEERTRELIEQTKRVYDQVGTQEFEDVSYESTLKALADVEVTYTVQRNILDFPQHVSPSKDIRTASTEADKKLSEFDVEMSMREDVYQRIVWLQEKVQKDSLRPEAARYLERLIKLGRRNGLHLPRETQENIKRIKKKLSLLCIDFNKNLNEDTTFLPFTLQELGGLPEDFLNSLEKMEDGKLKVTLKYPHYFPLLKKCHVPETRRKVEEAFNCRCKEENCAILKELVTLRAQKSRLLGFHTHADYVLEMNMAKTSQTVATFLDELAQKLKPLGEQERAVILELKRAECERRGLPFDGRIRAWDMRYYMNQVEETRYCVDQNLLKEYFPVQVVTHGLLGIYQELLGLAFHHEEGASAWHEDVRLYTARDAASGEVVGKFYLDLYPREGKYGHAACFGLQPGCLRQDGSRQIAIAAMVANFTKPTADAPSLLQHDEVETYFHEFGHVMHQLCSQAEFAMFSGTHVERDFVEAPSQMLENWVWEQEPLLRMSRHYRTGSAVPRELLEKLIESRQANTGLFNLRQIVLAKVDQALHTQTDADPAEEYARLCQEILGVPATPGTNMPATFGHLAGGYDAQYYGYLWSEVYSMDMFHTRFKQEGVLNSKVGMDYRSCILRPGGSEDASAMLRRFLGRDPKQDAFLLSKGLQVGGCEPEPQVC
molecule,measurement,setting,value
"c1cnc2c(c1)ccc1cccnc12 [1,10-phen., 1,10phenanthroline]",remaining activity at 100 µM,"amyloidin [1]; assay conc. 0.1 mM, stock in DMSO, 30 min pre-incubation, room temperature, read-out: % Control Activity",75%
same,inhibitory effect on amyloidin,amyloidin [1]; in words,only weakly inhibitory
"CC(=O)N[C@@H](C)C(=O)N[C@@H](CC(=O)O)C(=O)Nc1ccc([N+](=O)[O-])cc1 [Ac-AD-pNA, Acetylalanyl-aspartyl-] (Ac-Ala-Asp-pNA)",cleavage of p-NA substrate by amyloidin (increase in A405),amyloidin [2],0
"CSCC[C@H](NC(=O)[C@H](CCCCN)NC(=O)[C@@H](NC(=O)[C@H](CCC(=O)O)NC(C)=O)C(C)C)C(=O)Nc1ccc([N+](=O)[O-])cc1 [Ac-EVKM-PNA, acetylglutamyl-valyl-lysyl-methinyl-pNA] (Ac-EVKM-pNA)",cleavage of p-NA substrate by amyloidin (increase in A405),amyloidin [2],0
CSCC[C@@H](C=O)NC(=O)[C@H](CC(C)C)NC(=O)[C@H](CC(C)C)NC(C)=O [Calp. Inh. II] (Ac-Leu-Leu-Met-aldehyde),remaining activity at 50 µg/mL,"amyloidin [1]; assay conc. 50 ug/ml, 30 min pre-incubation, room temperature, read-out: % Control Activity",130%
same,inhibitory effect on amyloidin,amyloidin [1]; in words,no inhibitory effect
CC(C)C[C@H](NC(=O)[C@H]1O[C@@H]1C(=O)O)C(=O)NCCCCN=C(N)N [E-64],remaining activity at 1 µg/mL,"amyloidin [1]; assay conc. 1 ug/ml, 30 min pre-incubation, room temperature, read-out: % Control Activity",119%
same,inhibitory effect on amyloidin,amyloidin [1]; in words,no inhibitory effect
"O=C(O)CN(CCN(CC(=O)O)CC(=O)O)CC(=O)O [EDTA, ethylenediaminetetraacetic acid]",cleavage of APP592-601 by amyloidin,amyloidin [1],no detectable cleavage
same,inhibitory effect on amyloidin,amyloidin [1],strongly inhibited
CSCC[C@H](NC(=O)[C@H](CCC(N)=O)NC(=O)[C@@H](NC(=O)[C@H](CCC(=O)O)NC(=O)[C@H](CO)NC(C)=O)C(C)C)C(=O)N[C@@H](CC(=O)O)C(=O)N[C@@H](C)C(=O)N[C@@H](CCC(=O)O)C(=O)N[C@@H](Cc1ccccc1)C(=O)N[C@@H](CCCNC(=N)N)C(N)=O [Gln595 analog] (Ac-SEVQMDAEFR-NH2),site of cleavage by amyloidin,amyloidin [3],all the cleavage by amyloidin was at the Met-Asp bond
"COC(=O)CCC(=O)N[C@@H](C)C(=O)N[C@@H](C)C(=O)N1CCC[C@H]1C(=O)N[C@H](C(=O)Nc1ccc([N+](=O)[O-])cc1)C(C)C [MeS-AAPV-pNA, Methoxysuccinylalanyl-alanyl-prolyl-valyl-] (MeOSuc-AAPV-pNA)",cleavage of p-NA substrate by amyloidin (increase in A405),amyloidin [2],0
"O=S(=O)(F)Cc1ccccc1 [PMSF, phenylmethylsulfonyl fluoride]",% Control Activity,amyloidin [1],69%
"C[C@H](NC(=O)CCC(=O)O)C(=O)N[C@@H](C)C(=O)N1CCC[C@H]1C(=O)N[C@@H](Cc1ccccc1)C(=O)Nc1ccc([N+](=O)[O-])cc1 [Suc-AAPF-pNA, Succinylalanyl-alanyl-prolyl-phenylalanyl-] (Suc-AAPF-pNA)",cleavage of p-NA substrate by amyloidin (increase in A405),amyloidin [2],0
"CSCC[C@H](NC(=O)[C@@H]1CCCN1C(=O)[C@H](C)NC(=O)[C@H](C)NC(=O)CCC(=O)O)C(=O)Nc1ccc([N+](=O)[O-])cc1 [Suc-AAPM-pNA, Suc-Ala-Ala-Pro-Met-pNA] (Suc-AAPM-pNA)",cleavage of p-NA substrate by amyloidin (increase in A405),amyloidin [2],0
"C[C@H](NC(=O)OCc1ccccc1)C(=O)N[C@@H](C)C(=O)Nc1ccc([N+](=O)[O-])cc1 [Z-AA-pNA, benzyloxycarbonylalanyl-alanyl-] (Cbz-Ala-Ala-pNA)",cleavage of p-NA substrate by amyloidin (increase in A405),amyloidin [2],0
"N=C(N)NCCC[C@H](NC(=O)OCc1ccccc1)C(=O)N[C@@H](CCCCN)C(=O)Nc1ccc([N+](=O)[O-])cc1 [Z-RK-pNA, benzyloxycarbonylarginyl-lysyl-] (Cbz-Arg-Lys-pNA)",cleavage of p-NA substrate by amyloidin (increase in A405),amyloidin [2],0
"N=C(N)NCCC[C@H](NC(=O)OCc1ccccc1)C(=O)N[C@@H](CCCNC(=N)N)C(=O)Nc1ccc([N+](=O)[O-])cc1 [Z-RR-pNA, benzyloxycarbonyl arginylarginyl-] (Cbz-Arg-Arg-pNA)",cleavage of p-NA substrate by amyloidin (increase in A405),amyloidin [2],0
CC(C)C[C@H](NC(=O)[C@@H](NC(=O)N[C@@H](Cc1ccccc1)C(=O)O)[C@@H]1CCN=C(N)N1)C(=O)N[C@H](C=O)Cc1ccccc1 [chymostatin],remaining activity at 25 µg/mL,amyloidin [1]; read-out: % Control Activity,77%
CC(C)C[C@H](NP(=O)(O)O[C@@H]1O[C@@H](C)[C@H](O)[C@@H](O)[C@H]1O)C(=O)N[C@@H](Cc1c[nH]c2ccccc12)C(=O)O [phosphoramidon],remaining activity at 100 µg/mL,"amyloidin [1]; assay conc. 0.1 mg/ml, 30 min pre-incubation, room temperature, read-out: % Control Activity",79%
same,inhibitory effect on amyloidin,amyloidin [1]; in words,only weakly inhibitory
CC(=O)N[C@@H](CO)C(=O)N[C@@H](CCC(=O)O)C(=O)N[C@H](C(=O)N[C@@H](CCCCN)C(=O)N[C@@H](C)C(=O)N[C@@H](CC(=O)O)C(=O)N[C@@H](C)C(=O)N[C@@H](CCC(=O)O)C(=O)N[C@@H](Cc1ccccc1)C(=O)N[C@@H](CCCNC(=N)N)C(N)=O)C(C)C [replacement of Met596 by Ala] (Ac-SEVKADAEFR-NH2),site of cleavage by amyloidin,amyloidin [3],"loss of cleavage at this site, but cleavage shifted to the Lys595-Ala596 bond"
Butyloxycarbonylalanyl-alanyl-aspartyl- (Boc-Ala-Ala-Asp-pNA; SMILES C[C@H](NC(=O)OC(C)(C)C)C(=O)N[C@@H](C)C(=O)N[C@@H](CC(=O)O)C(=O)Nc1ccc([N+](=O)[O-])cc1) [Boc-AAd-Pna],cleavage of p-NA substrate by amyloidin (increase in A405),amyloidin [2],0
HSEVKMDAEF,sites of cleavage by brain protease,brain protease,"primarily at three sites, between the Lys-Met, Met-Asp, and Asp-Ala, with some cleavage obtained at His-Ser"
aprotinin,% Control Activity,amyloidin [1],102%
same,inhibitory effect on amyloidin,amyloidin [1],nor did aprotinin
full-length protein (APP): full-length protein (APP) produced by baculovirus cells transformed with the gene encoding APP,cleavage of full-length APP by amyloidin,amyloidin [4],did not cleave
human amyloidin protease (enzyme),increase in absorbance at 405 nm,Z-RR-pNA,0
same,increase in absorbance at 405 nm,Ac-AD-pNA,0
same,increase in absorbance at 405 nm,MeS-AAPV-pNA,0
same,increase in absorbance at 405 nm,Z-AA-pNA,0
same,increase in absorbance at 405 nm,Ac-EVKM-PNA,0
same,increase in absorbance at 405 nm,Boc-AAd-Pna,0
same,increase in absorbance at 405 nm,Z-RK-pNA,0
same,increase in absorbance at 405 nm,Suc-AAPF-pNA,0
same,increase in absorbance at 405 nm,Suc-AAPM-pNA,0
same,"Specific Activity (area/min/mg), DAEFR area by RP-HPLC",[5],2080 area/min/mg
α1-PI: general plasma serine proteinase inhibitor,% Control Activity,"amyloidin [1]; assay conc. 30 ug/ml, 30 min pre-incubation, room temperature",98%
same,inhibitory effect on amyloidin,amyloidin [1]; in words,"Neither α-1-proteinase inhibitor or α-1-antichymotrypsin, two general plasma serine proteinase inhibitors, had any inhibitory effect"
α1-antichymotrypsin,% Control Activity (cleavage of APP592-601) (% control activity),[6],121
α1-proteinase inhibitor,% Control Activity (cleavage of APP592-601) (% control activity),[6],98
B1,percent of Suc-Ala-Ala-Pro-Phe-pNA hydrolysing activity bound to the matrix,[7],95% of this activity had bound to the matrix
